Data as given in paper PMC9953660, “Using ΔK280 TauRD Folding Reporter Cells to Screen TRKB Agonists as Alzheimer’s Disease Treatment Strategy” (Biomolecules, 2023).
Read-outs that look alike come from different tables or passages of the source.

Experiments:
[1] = Cell number / cell survival in induced ΔK280 TauRD-DsRed SH-SY5Y cells (high-content); assay type: cell-based, human; settings: human; induced SH-SY5Y cells expressing ΔK280 TauRD-DsRed for 6 days, 2–10 μM tested; read-out: IC50 cytotoxicity based on cell number
Procedure: (§1) ΔK280 TauRD-DsRed SH-SY5Y cells were plated in the presence of 10 μM retinoid acid (RA; Sigma-Aldrich) to promote neuronal differentiation. The next day, cells were added with congo red or ZN/VB compounds (2–10 μM) for 8 h pretreatment, followed by inducing ΔK280 TauRD-DsRed expression with doxycycline (2 μg/mL). On day 8, cell nuclei were stained with Hoechst 33342 (0.1 μg/mL; Thermo Scientific), and cell images acquired using ImageXpress Micro Confocal High-Content Imaging System (Molecular Devices, San Jose, CA, USA) with DAPI (4′,6-diamidino-2-phenylindole, for nuclei) and TRITC (tetramethylrhodamine, for DsRed) fluorescence filter sets. To detect ROS changes, 10 μM compound-treated cells were stained with Hoechst 33342 and 2′,7′-dichlorodihydrofluorescein diacetate (H2DCFDA, 10 μM) fluorescein (Invitrogen, Carlsbad, CA, USA), and cell images captured using DAPI and FITC (fluorescein isothiocyanate, for DCF) filters. For assessing differential neurite outgrowth, 10 μM compound-treated cells were fixed (paraformaldehyde, 4%), permeabilized (Triton X-100, 0.3%), and stained with class III β-tubulin (TUBB3, 1:1000) primary antibody (#802001, BioLegend, San Diego, CA, USA), followed by donkey anti-rabbit Alexa Fluor® 555 secondary antibody (1:1000; #A-31572, Invitrogen) and DAPI (0.1 μg/mL; Sigma-Aldrich) stains. The nuclei and neurite images were acquired with DAPI and TRITC fluorescence filters, respectively. All analyses of images were performed using MetaXpress software (Molecular Device).

MTT cell viability assay = assay type: cell-based; settings: human
Procedure: Human neuroblastoma SH-SY5Y cells with inducible ΔK280 TauRD-DsRed expression were maintained in DMEM/F-12 supplemented with fetal bovine serum (FBS, 10%) (Thermo Scientific, Waltham, MA, USA), penicillin/streptomycin (100 U/mL), selection antibiotics hygromycin (100 μg/mL) and blasticidin (5 μg/mL) (InvivoGen, San Diego, CA, USA), and 1.5 g/l sodium bicarbonate. Cells were cultured at 37 °C in a 5% CO2 atmosphere. The cell viability of ZN and VB compounds (concentration range: 0.1–100 μM) was evaluated by a 3-(4,5-dimethylthiazol-2-yl)-2,5-diphenyltetrazolium bromide (MTT; Sigma-Aldrich) colorimetric assay. The absorbance at 570 nm was recorded by a Multiskan™ GO Microplate Spectrophotometer (Thermo Scientific).

[2] = target: T1, E. coli-expressed ΔK280 TauRD protein (Homo sapiens, UniProt P10636, DEL597-597); assay: Thioflavin T fluorescence ΔK280 TauRD aggregation assay; assay type: biochemical; settings: TauRD protein 20 μM, 48 h at 37 °C; read-out: EC50 inhibiting ΔK280 TauRD aggregation
T1 construct: TauRD (Q^244-E^372 of Tau, NP_005901) aggregation; N-terminal Met (N); made in house; host or cells: E. coli
Procedure: The anti-aggregation activity of congo red (positive control) and ZN/VB compounds (5–20 μM) was assessed using E. coli-expressed ΔK280 TauRD protein [33] and thioflavin T (Sigma-Aldrich) fluorescence assay. The trend of ΔK280 TauRD amyloid aggregate formation depicted with enhanced and red-shifted fluorescence was recorded by a FLx800 microplate fluorescence reader (BioTek Instruments), where the procedure was previously reported in detail.

ΔK280 TauRD-DsRed = target: T2, ΔK280 TauRD-DsRed (Homo sapiens, UniProt P10636, DEL597-597); assay: High-content DsRed fluorescence assay of ΔK280 TauRD-DsRed folding reporter cells; assay type: cell-based; settings: 10 μM; untreated cells = 100%; 8 h pretreatment, 6 day Dox induction
T2 construct: TauRD (Q^244-E^372 of Tau, NP_005901) aggregation; expressed in transfected cells; host or cells: SH-SY5Y (Tet-On, doxycycline-inducible)
Procedure: as §1, with “For assessing differential neurite outgrowth, 10 μM compound-treated cells were fixed (paraformaldehyde, 4%), permeabilized (Triton X-100, 0.3%), and stained with class III β-tubulin (TUBB3, 1:1000) primary antibody (#802001, BioLegend, San Diego, CA, USA), followed by donkey anti-rabbit Alexa Fluor® 555 secondary antibody (1:1000; #A-31572, Invitrogen) and DAPI (0.1 μg/mL; Sigma-Aldrich) stains.” left out, “All analyses of images were performed using MetaXpress software (Molecular Device).” left out

[3] = tested on: ROS in ΔK280 TauRD-DsRed SH-SY5Y cells; assay: High-content assessment of cellular ROS (H2DCFDA); assay type: cell-based, human; settings: 10 μM; uninduced = 100%, induced untreated 123%; range over compounds
Procedure: as §1, with “For assessing differential neurite outgrowth, 10 μM compound-treated cells were fixed (paraformaldehyde, 4%), permeabilized (Triton X-100, 0.3%), and stained with class III β-tubulin (TUBB3, 1:1000) primary antibody (#802001, BioLegend, San Diego, CA, USA), followed by donkey anti-rabbit Alexa Fluor® 555 secondary antibody (1:1000; #A-31572, Invitrogen) and DAPI (0.1 μg/mL; Sigma-Aldrich) stains.” left out, “All analyses of images were performed using MetaXpress software (Molecular Device).” left out

[4] = target: T3, TRKB extracellular domain (TRKB-ECD) (Homo sapiens, UniProt Q16620); assay: Tryptophan fluorescence quenching assay; settings: Pichia pastoris-expressed TRKB-ECD, 0–1000 nM, excitation 295 nm, emission 330 nm, room temperature; read-out: KD (TRKB-ECD binding affinity)
T3 construct: TRKB-ECD (marked in red, C^32-E^429, XP_016870240); His (C); made in house; host or cells: Pichia pastoris
Procedure: The interaction between the N-terminal extracellular domain of TRKB (TRKB-ECD) and 7,8-DHF (as positive control; [35]), ZN-015, VB-030 or VB-037 was evaluated with tryptophan fluorescence titration. TRKB-ECD-His protein was expressed in the Pichia expression system (Invitrogen) and purified as stated. Intrinsic tryptophan fluorescence spectra with titration of a different concentration of compounds (0–1000 nM) were recorded by fluorescence spectrophotometer F-7000 (Hitachi, Tokyo, Japan), with excitation wavelength 295 nm and emission wavelength in the range of 300–400 nm. The calculation of dissociation constant (KD) between the 7,8-DHF or ZN/VB compound and TRKB was described in a previous report.

[5] = DPPH free-radical scavenging assay; assay type: physicochemical; settings: 10–160 μM, compared to kaempferol
Procedure: Free-radical scavenging activity of kaempferol (positive control) and ZN/VB compounds (10–160 μM) was measured using a 1,1-diphenyl-2-picrylhydrazyl (DPPH; Sigma-Aldrich) photometric assay as stated. The absorbance at 517 nm was assessed by a Multiskan™ GO Microplate Spectrophotometer (Thermo Scientific). An oxygen radical absorbance capacity (ORAC) assay of kaempferol and ZN/VB compounds (4–100 μM) was conducted according to the manufacturer’s instructions (OxiSelect™; Cell Biolabs, San Diego, CA, USA). The decrease of fluorescence intensity was monitored by a FLx800 microplate fluorescence reader (BioTek Instruments, Winooski, VT, USA). The ORAC activity was quantified as a trolox-equivalent antioxidant capacity.

[6] = target: T3, TRKB extracellular domain (TRKB-ECD); parameters: method as in PMID 25143381; settings: read-out: KD (TRKB-ECD binding affinity), reported value; cited from earlier work
[7] = tested on: SH-SY5Y cells expressing ΔK280 TauRD-DsRed; assay: Cell number / cell survival in induced ΔK280 TauRD-DsRed SH-SY5Y cells (high-content); assay type: cell-based, human; settings: induced ΔK280 TauRD-DsRed SH-SY5Y, 2–10 μM
Procedure: as §1

T3 sequence (Q16620 32-429): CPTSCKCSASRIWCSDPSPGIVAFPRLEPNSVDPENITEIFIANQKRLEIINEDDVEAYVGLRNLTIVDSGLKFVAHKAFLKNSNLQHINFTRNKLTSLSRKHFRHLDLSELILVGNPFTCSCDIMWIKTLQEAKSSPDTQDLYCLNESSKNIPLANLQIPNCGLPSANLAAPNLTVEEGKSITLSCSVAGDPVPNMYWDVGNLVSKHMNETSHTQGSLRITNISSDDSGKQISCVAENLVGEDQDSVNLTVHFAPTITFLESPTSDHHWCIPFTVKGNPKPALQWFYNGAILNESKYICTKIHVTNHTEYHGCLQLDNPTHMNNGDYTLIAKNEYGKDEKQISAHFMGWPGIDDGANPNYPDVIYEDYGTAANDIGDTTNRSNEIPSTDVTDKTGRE
T1 sequence (P10636 with tags, fused parts or gaps isoform P10636-8 DEL280-280): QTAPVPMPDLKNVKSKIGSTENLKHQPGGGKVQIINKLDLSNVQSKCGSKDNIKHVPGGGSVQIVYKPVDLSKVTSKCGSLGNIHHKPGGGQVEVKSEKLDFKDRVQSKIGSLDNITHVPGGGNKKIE
T2 sequence (P10636 with tags, fused parts or gaps isoform P10636-8 DEL280-280): as above

Row | SMILES | IC50 at 6 days [1] [µM] | IC50 at 24 h (MTT cell viability assay) [µM] | EC50 [2] [µM] | Kd [4] [µM] | other results
1 | O=C(O)COc1cc(O)c2c(=O)cc(-c3ccccc3)oc2c1 [ZN-006, 2-((5-hydroxy-4-oxo-2-phenyl-4H-chromen-7-yl)oxy)acetic acid] | > 10 | > 100 |  |  | 
2 | Nc1c(/N=N/c2ccc(-c3ccc(/N=N/c4cc(S(=O)(=O)O)c5ccccc5c4N)cc3)cc2)cc(S(=O)(=O)O)c2ccccc12 [congo red, Congo red, reference compound] | > 10 |  | 13.9 |  | DsRed fluorescence (ΔK280 TauRD-DsRed): 114%
3 | O=[N+]([O-])c1cccc2nc(/C=C/c3cc4ccccc4nc3N3CCOCC3)ccc12 [VB-037, (E)-4-(3-(2-(5-nitroquinolin-2-yl)vinyl)quinolin-2-yl)morpholine] | 23 | > 100 | 13.1 | 0.0043 ± 0.0052 | ROS level (DCF fluorescence) [3]: no effect on reducing ROS; DPPH free radical scavenging activity [5]: very weak DPPH free radical scavenging activity
4 | Cc1ccc(-c2cc(-c3ccncc3)nc3ccccc23)cc1 [VB-030, 2-(pyridin-4-yl)-4-(p-tolyl)quinoline] | > 10 | > 100 | 20.3 | 0.011 ± 0.0024 | 
5 | O=c1cc(-c2ccccc2)oc2c(O)c(O)ccc12 [7,8-DHF, 7,8-dihydroxy flavone, reference compound] |  |  |  | 0.0134 ± 0.0084 | Kd [6]: 0.0121 ± 0.0016 µM
6 | O=C(Nc1cccc(S(=O)(=O)NC2=NCCCCC2)c1)c1cc(-c2ccncc2)nc2ccccc12 [VB-041, 2-(pyridin-4-yl)-N-(3-(N-(3,4,5,6-tetrahydro-2H-azepin-7-yl)sulfamoyl)phenyl)quinoline-4-carboxamide] | > 10 | > 100 |  |  | 
7 | CCOC(=O)c1cc2c(O)cccc2oc1=O [ZN-014, ethyl 5-hydroxy-2-oxo-2H-chromene-3-carboxylate] | > 10 |  |  |  | IC50 at 24 h (MTT cell viability assay; uninduced ΔK280 TauRD-DsRed SH-SY5Y, 0.1–100 μM, 24 h, read-out: IC50 cytotoxicity (MTT)): > 100 µM
8 | Cc1ccc2[nH]c(=O)c(C(=O)/C=C/c3nc4ccccc4[nH]3)c(-c3ccccc3)c2c1 [VB-031, (E)-3-(3-(1H-benzo[d]imidazol-2-yl)acryloyl)-6-methyl-4-phenylquinolin-2(1H)-one] | < 2 | 6 |  |  | percentage of cell survival [7]: less than 75%
9 | COc1cccc2oc(C(=O)c3ccccc3)cc12 [ZN-013, (4-methoxybenzofuran-2-yl)(phenyl)methanone] | 27 | > 100 |  |  | 
